This passage reports EC50 results from patent US8754222B2, “Process for preparing modulators of cystic fibrosis transmembrane conductance regulator” (Vertex Pharmaceuticals Incorporated, priority 2009, dated 2014).

The target of the assay is T1, ΔF508-CFTR (Homo sapiens, UniProt P13569, DEL508-508).
T1 construct: expressed in transfected cells; host or cells: NIH3T3 mouse fibroblasts, stably expressing, temperature-corrected at 27 °C
The assay is described as follows: Membrane potential optical assay, identification of potentiator compounds. It counts as cell-based. To be noted: assay not specified; ΔF508-CFTR potentiation, NIH 3T3 cells. The source says: Membrane Potential Optical Methods for Assaying ΔF508-CFTR Modulation Properties of Compounds
The assay utilizes fluorescent voltage sensing dyes to measure changes in membrane potential using a fluorescent plate reader (e.g., FLIPR III, Molecular Devices, Inc.) as a readout for increase in functional ΔF508-CFTR in NIH 3T3 cells. The driving force for the response is the creation of a chloride ion gradient in conjunction with channel activation by a single liquid addition step after the cells have previously been treated with compounds and subsequently loaded with a voltage sensing dye.
Identification of Potentiator Compounds
To identify potentiators of ΔF508-CFTR, a double-addition HTS assay format was developed. This HTS assay utilizes fluorescent voltage sensing dyes to measure changes in membrane potential on the FLIPR III as a measurement for increase in gating (conductance) of ΔF508 CFTR in temperature-corrected ΔF508 CFTR NIH 3T3 cells. The driving force for the response is a ion gradient in conjunction with channel activation with forskolin in a single liquid addition step using a fluorescent plate reader such as FLIPR III after the cells have previously been treated with potentiator compounds (or DMSO vehicle control) and subsequently loaded with a redistribution dye.
Bath Solution #1: (in mM) NaCl 160, KCl 4.5, CaCl2 2, MgCl2 1, HEPES 10, pH 7.4 with NaOH. […]

T1 sequence (P13569 with tags, fused parts or gaps DEL508-508): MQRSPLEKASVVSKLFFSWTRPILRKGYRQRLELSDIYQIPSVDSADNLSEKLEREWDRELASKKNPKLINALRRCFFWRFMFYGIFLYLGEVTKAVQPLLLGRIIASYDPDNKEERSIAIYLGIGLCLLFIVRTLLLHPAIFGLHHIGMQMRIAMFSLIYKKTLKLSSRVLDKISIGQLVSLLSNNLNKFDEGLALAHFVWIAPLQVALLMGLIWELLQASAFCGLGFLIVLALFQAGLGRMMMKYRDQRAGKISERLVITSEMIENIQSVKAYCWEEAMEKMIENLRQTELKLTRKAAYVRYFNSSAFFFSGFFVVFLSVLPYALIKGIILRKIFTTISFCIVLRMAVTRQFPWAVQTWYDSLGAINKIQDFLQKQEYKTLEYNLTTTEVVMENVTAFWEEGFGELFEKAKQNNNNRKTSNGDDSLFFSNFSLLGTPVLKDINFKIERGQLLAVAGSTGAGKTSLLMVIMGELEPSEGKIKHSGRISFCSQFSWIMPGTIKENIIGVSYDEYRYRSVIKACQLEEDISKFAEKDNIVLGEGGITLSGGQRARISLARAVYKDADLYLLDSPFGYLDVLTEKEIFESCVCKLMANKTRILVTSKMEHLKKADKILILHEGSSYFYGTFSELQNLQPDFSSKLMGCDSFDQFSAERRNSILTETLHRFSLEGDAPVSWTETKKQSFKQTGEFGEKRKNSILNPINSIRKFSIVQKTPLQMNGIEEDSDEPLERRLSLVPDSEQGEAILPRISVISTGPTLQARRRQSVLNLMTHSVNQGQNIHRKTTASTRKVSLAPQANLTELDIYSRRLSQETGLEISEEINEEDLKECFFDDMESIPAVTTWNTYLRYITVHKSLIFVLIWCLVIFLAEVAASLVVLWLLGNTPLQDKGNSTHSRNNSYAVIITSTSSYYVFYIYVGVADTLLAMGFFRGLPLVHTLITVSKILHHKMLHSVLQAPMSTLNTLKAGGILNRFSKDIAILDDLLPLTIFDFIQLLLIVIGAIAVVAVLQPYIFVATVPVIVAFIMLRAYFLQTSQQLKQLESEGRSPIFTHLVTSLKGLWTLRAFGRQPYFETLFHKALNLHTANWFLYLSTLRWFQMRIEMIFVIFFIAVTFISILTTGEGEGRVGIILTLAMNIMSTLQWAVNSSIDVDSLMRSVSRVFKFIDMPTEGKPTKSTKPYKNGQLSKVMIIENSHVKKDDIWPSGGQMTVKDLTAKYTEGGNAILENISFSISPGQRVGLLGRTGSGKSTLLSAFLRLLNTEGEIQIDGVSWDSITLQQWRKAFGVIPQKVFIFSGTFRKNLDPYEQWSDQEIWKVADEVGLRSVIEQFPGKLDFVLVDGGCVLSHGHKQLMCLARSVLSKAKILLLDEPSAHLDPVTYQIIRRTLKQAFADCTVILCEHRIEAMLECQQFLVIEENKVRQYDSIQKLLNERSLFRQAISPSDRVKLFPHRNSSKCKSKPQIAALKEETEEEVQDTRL

Broadly, the EC50 is the midpoint of the concentration-response curve. Consider `O=C(Nc1ccc(N2C3CCC2CC3)cc1C(F)(F)F)c1c[nH]c2cccc(C(F)(F)F)c2c1=O` [Compound 1 Form A, N-(4-(7-azabicyclo[2.2.1]heptan-7-yl)-2-(trifluoromethyl)phenyl)-4-oxo-5-(trifluoromethyl)-1,4-dihydroquinoline-3-carboxamide], for which the concentration giving a half-maximal response (EC50) was less than 2 µM.
